“Also recorded” adds a separate entry of the source. Like-named read-outs stand apart in the source and are kept apart here.
Assays:
[1] = system: RML (Rocky Mountains Laboratories) strain of the mouse scrapie agent; assay type: in vivo, CD1 female mice; conditions: Log-Rank test
PrP^sc [2] = assay type: in vivo, CD1 female mice; conditions: mice sacrificed at clinical end stage; brain
PrP^sc [3] = assay type: in vivo, CD1 female mice; conditions: ip infected mice; cerebellum, hippocampus and parietal cortex
[4] = mouse, in vivo, po
gamma secretase = conditions: cited from earlier work

O=C(O)C1(c2ccc(-c3ccc(Cl)c(Cl)c3)c(F)c2)CC1 [CHF 5074]
survival time, treated versus untreated ([1]; ic infected mice): no difference; also recorded: no effect
survival time, treated versus untreated ([1]; ip infected mice): significantly increases the survival; also recorded: significant difference; also recorded: significantly prolongs survival times
content of PrP^sc among the different groups (Western blot) (PrP^sc [2]): without significant differences
PrP^sc deposits in brain areas (immunohistochemistry), treated compared to controls (PrP^sc [3]): significant lower PrP^sc deposits
safety and tolerability of chronic administration [4]: safe and well tolerate
mode of action on gamma secretase (gamma secretase): gamma secretase modulator
